According to US11116774B2, “Modulators of toll-like receptors for the treatment of HIV” (Gilead Sciences, Inc., priority 2014, dated 2021):
Where two headings read alike, the source gives them in different places.

Columns and labels:
[1] = test system: HIV-1 expression in PBMC cultures from HIV-1 infected donors on cART; assay: Induced HIV-1 expression in PBMC cultures from HIV-1 infected donors on cART (Example 208); format: cell-based, human; settings: Tables 7-11; for fold induction at 0.01 µM / fold induction at 0.156 µM / fold induction at 2.5 µM: Human immunodeficiency virus 1, PBMC; for fold induction at 0.01 µM: read-out: Fold HIV-1 Induction, Geometric Mean, 0.01 μM
Description: Isolated PBMCs were treated with various concentrations (0.1, 1, and 10 μM) of the TLR7 modulating compounds (compounds of Example 4 and Example 49) or dimethyl sulfoxide (DMSO) treated (vehicle control) for 4 to 5 days. The cultures were maintained in the presence of antivirals (elvitegravir and efavirenz at 100 nM each) to prevent viral spread and amplification in order to measure initial virus production (latency reversal) created by the TLR7 modulating compounds. At the end of the incubation period cell-free culture supernatants were harvested and HIV-1 RNA levels were quantified by the COBAS® AmpliPrep/COBAS® TaqMan HIV-1 Test, v2.0 (Roche).
Using the method described above in Example 208, HIV-1 expression in PBMC cultures derived from four additional HIV-1 infected donors on cART were tested in the presence of the compounds of Examples 4, 29, 120, 121, 122, 123, 124, resiquimod, and imiquimod.

[2] = test system: polyfunctional proliferating CD8 T cells (CFSE low, IFNg+, TNFa+); assay: Induction of HIV-specific polyfunctional CD8 T cells by combination with an IDO1 inhibitor (Example 217); format: cell-based, human
Description: PBMCs from 4 HIV-infected donors (Donor IDs 180-183) on suppressive cART were isolated, as described previously, stained with CFSE, and treated with 500 ng/ml 15-mer peptide pools derived from overlapping HIV gag, pol, nef, and env consensus peptides (JPT Peptide Technologies GmbH). PBMC cultures were treated with DMSO or the compound of Example 49 (GS-9620) at 0.1 uM. In some cultures treated with Example 49, the IDO1 small molecule inhibitor, INCB024360, was combined at 2 μM. Cells were incubated at 37° C. for 8 days, then split into duplicate sets and stained in DPBS with LIVE/DEAD Fixable Aqua Dead Cell Stain (Life Technologies). The immune recall response was performed as previously described. FACS was performed on a LSR Fortessa (BD Biosciences) and data analysis was done with FlowJo software (TreeStar). Data was plotted and statistical analysis was done with GraphPad Prism software (GraphPad).

[3] = read-out: Fold HIV-1 Induction, Geometric Mean, 0.156 μM, donors 152-155
[4] = read-out: Fold HIV-1 Induction, Geometric Mean, 2.5 μM, donors 152-155

Row | SMILES | Donors with ≥2-fold HIV-1 Induction ([1]; 0.01 μM) | Donors with ≥2-fold HIV-1 Induction ([1]; 0.156 μM) | Donors with ≥2-fold HIV-1 Induction ([1]; 2.5 μM) | fold induction at 0.01 µM ([1]; donors 152-155) | fold induction at 0.156 µM [1, 3] | fold induction at 2.5 µM [1, 4] | fold induction at 0.156 µM ([1]; 96 h, read-out: Fold HIV-1 Induction, 0.156 μM, per donor, supernatants Day 4, PBMCs added to pre-plated compounds) | further increase of mean level of polyfunctional proliferating CD8 T cells (TLR7 only vs. TLR7+IDO1) [2] [%] | fold induction at 2.5 µM ([1]; 96 h, read-out: Fold HIV-1 Induction, 2.5 μM, per donor, supernatants Day 4, PBMCs added to pre-plated compounds)
1 | Nc1nc(=O)c2sc(=O)n([C@@H]3O[C@H](CO)C[C@H]3O)c2[nH]1 [Example 124, 5-amino-3-((2R,3R,5S)-3-hydroxy-5-(hydroxymethyl)tetrahydrofuran-2-yl)thiazolo[4,5-d]pyrimidine-2,7(3H,4H)-dione, reference compound] | 3 of 4 | 2 of 4 | 2 of 4 | 3.7 | 1.8 | 1.6 | – | – | –
2 | COCCOc1nc(N)c2[nH]c(=O)n(Cc3ccc(-c4ccc(CN5CCCC5)cc4)cc3)c2c1Cl [Example 121, 4-amino-7-chloro-6-(2-methoxyethoxy)-1-((4′-(pyrrolidin-1-ylmethyl)-[1,1-biphenyl]-4-yl)methyl)-1H-imidazo[4,5-c]pyridin-2(3H)-one] | 2 of 4 | 2 of 4 | 4 of 4 | 1.3 | 1.3 | 2.9 | – | – | –
3 | CC(C)Cn1cnc2c(N)nc3ccccc3c21 [imiquimod, reference compound] | 4 of 4 | 4 of 4 | 3 of 4 | 4.3 | 5.4 | 4.8 | 4.4 | – | –
4 | NS(=O)(=O)NCCNc1nonc1C(=NO)Nc1ccc(F)c(Br)c1 [INCB024360, reference compound] | – | – | – | – | – | – | – | 70 | –
5 | COCCOc1cc2c([nH]c(=O)n2Cc2ccc(-c3ccc(CN4CCCC4)cc3)cc2)c(N)n1 [Example 120, 4-amino-6-(2-methoxyethoxy)-1-((4′-(pyrrolidin-1-ylmethyl)-[1,1-biphenyl]-4-yl)methyl)-1H-imidazo[4,5-c]pyridin-2(3H)-one] | 4 of 4 | 4 of 4 | 4 of 4 | 3.9 | 5.5 | 4 | – | – | –
6 | COCCOc1nc(N)c2nc(O)n(Cc3ccccc3)c2n1 [Example 122, 6-amino-9-benzyl-2-(2-methoxyethoxy)-9H-purin-8-ol, reference compound] | 3 of 4 | 3 of 4 | 4 of 4 | 5 | 4.8 | 6.9 | – | – | –
7 | CCOCc1nc2c(N)nc3ccccc3c2n1CC(C)(C)O [resiquimod, reference compound] | – | – | – | 5 | 6.9 | 7.4 | – | – | –
8 | CCc1nc2c(N)nc3ccccc3c2n1CCCCNS(C)(=O)=O [Example 123, N-(4-(4-amino-2-ethyl-1H-imidazo[4,5-c]quinolin-1-yl)butyl)methane sulfonamide, reference compound] | 2 of 4 | 3 of 4 | 4 of 4 | 1.9 | 3.4 | 5.1 | – | – | 3.3
